Target: T1, human capsaicin receptor (VR1) (Homo sapiens, UniProt Q8NER1)
T1 construct: transfected with the pBK-CMV expression construct encoding the full length human capsaicin receptor; expressed in transfected cells
Assay: Capsaicin receptor binding assay ([3H]RTX competition)
Conditions: read-out: Ki
From the text: This Example illustrates the preparation of VR1-transfected cells and membrane preparations for use in binding assays (Example 5) and functional assays (Example 6).
A cDNA encoding full length human capsaicin receptor (SEQ ID NO: 1, 2 or 3 of U.S. Pat. No. 6,482,611) was subcloned in the plasmid pBK-CMV (Stratagene, La Jolla, Calif.) for recombinant expression in mammalian cells.
Human embryonic kidney (HEK293) cells were transfected with the pBK-CMV expression construct encoding the full length human capsaicin receptor using standard methods. The transfected cells were selected for two weeks in media containing G418 ([…]) to obtain a pool of stably transfected cells. Independent clones were isolated from this pool by limiting dilution to obtain clonal stable cell lines for use in subsequent experiments.
For radioligand binding experiments, cells were seeded in T175 cell culture flasks in media without antibiotics and grown to approximately 90% confluency. The flasks were then washed with PBS and harvested in PBS containing 5 mM EDTA. The cells were pelleted by gentle centrifugation and stored at −80° C. until assayed.
Previously frozen cells were disrupted with the aid of a tissue homogenizer in ice-cold HEPES homogenization buffer (5mM KCl 5, 5.8 mM NaCl, 0.75 mM CaCl2, 2 mM MgCl2, 320 mM sucrose, and 10 mM HEPES pH 7.4). Tissue homogenates were first centrifuged for 10 minutes at 1000×g (4° C.) to remove the nuclear fraction and debris, and then the supernatant from the first centrifugation is further centrifuged for 30 minutes at 35,000×g (4° C.) to obtain a partially purified membrane fraction. Membranes were resuspended in the HEPES homogenization buffer prior to the assay. An aliquot of this membrane homogenate is used to determine protein concentration via the Bradford method (BIO-RAD Protein Assay Kit, #500-0001, BIO-RAD, Hercules, Calif.).
This Example illustrates a representative assay of capsaicin receptor binding that may be used to determine the binding affinity of compounds for the capsaicin (VR1) receptor.
Binding studies with [^3H] Resiniferatoxin (RTX) are carried out essentially as described by Szallasi and Blumberg (1992) J. Pharmacol. Exp. Ter. 262: 883-888. In this protocol, non-specific RTX binding is reduced by adding bovine alpha, acid glycoprotein (100 μg per tube) after the binding reaction has been terminated.
[^3H] RTX (37 Ci/mmol) is synthesized by and obtained from the Chemical Synthesis and Analysis Laboratory, National Cancer Institute-Frederick Cancer Research and Development Center, Frederick, Md. [^3H] RTX may also be obtained from commercial vendors (e.g., Amersham Pharmacia Biotech, Inc.; Piscataway, N.J.).
The membrane homogenate of Example 4 is centrifuged as before and resuspended to a protein concentration of 333 μg/ml in homogenization buffer. Binding assay mixtures are set up on ice and contain [^3H]JRTX (specific activity 2200 mCi/ml), 2 μl non-radioactive test compound, 0.25 mg/ml bovine serum albumin (Cohn fraction V), and 5×10^4−1×10^5 VR1-transfected cells. The final volume is adjusted to 500 μl (for competition binding assays) or 1,000 μl (for saturation binding assays) with the ice-cold HEPES homogenization buffer solution (pH 7.4) described above. Non-specific binding is defined as that occurring in the presence of 1 μM non-radioactive RTX (Alexis Corp.; San Diego, Calif.). For saturation binding, [^3H]RTX is added in the concentration range of […], using 1 to 2 dilutions. Typically 11 concentration points are collected per saturation binding curve.
Competition binding assays are performed in the presence of 60 pM [^3H]RTX and various concentrations of test compound. The binding reactions are initiated by transferring the assay mixtures into a 37° C. water bath and are terminated following a 60 minute incubation period by cooling the tubes on ice.

T1 sequence (Q8NER1 whole entry): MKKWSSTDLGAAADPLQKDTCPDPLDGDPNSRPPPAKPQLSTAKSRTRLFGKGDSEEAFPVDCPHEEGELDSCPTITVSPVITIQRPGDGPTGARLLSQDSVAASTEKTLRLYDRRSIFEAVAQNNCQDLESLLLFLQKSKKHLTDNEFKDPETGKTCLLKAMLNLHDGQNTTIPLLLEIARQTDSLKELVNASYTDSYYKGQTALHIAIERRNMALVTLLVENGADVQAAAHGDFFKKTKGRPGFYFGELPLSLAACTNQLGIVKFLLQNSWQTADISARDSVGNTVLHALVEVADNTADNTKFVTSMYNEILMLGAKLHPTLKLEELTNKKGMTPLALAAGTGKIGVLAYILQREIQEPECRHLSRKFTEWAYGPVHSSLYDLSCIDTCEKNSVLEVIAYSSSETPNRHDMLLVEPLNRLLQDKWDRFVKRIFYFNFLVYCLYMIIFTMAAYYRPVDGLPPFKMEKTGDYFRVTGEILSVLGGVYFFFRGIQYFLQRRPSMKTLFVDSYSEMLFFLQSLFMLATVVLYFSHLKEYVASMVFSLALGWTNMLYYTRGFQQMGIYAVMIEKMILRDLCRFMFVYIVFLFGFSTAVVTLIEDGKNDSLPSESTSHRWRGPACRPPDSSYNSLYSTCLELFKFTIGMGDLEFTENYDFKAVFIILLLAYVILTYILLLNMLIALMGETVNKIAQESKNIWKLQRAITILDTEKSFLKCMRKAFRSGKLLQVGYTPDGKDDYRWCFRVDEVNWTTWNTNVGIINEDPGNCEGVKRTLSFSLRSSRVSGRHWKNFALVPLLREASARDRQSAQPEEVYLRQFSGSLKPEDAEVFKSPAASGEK

CC(C)(C)c1ccc(NC(=O)c2ccc(-c3ccccn3)nc2)cc1 [Compound 9, [2,2′]Bipyridinyl-5-carboxylic acid (4-tert-butyl-phenyl)-amide]
Ki: < 1000 nM

CC(C)(C)c1ccc(NC(=O)c2ccc(-c3ccncc3)nc2)cc1 [Compound 11, [2,4′]Bipyridinyl-5-carboxylic acid (4-tert-butyl-phenyl)-amide]
Ki: < 1000 nM

CC(C)(C)c1ccc(NC(=O)c2ccc(-c3ncccc3C(F)(F)F)cc2N)cc1 [Compound 12, 2-Amino-N-(4-tert-butyl-phenyl)-4-(3-trifluoromethyl-pyridin-2-yl)-benzamide]
Ki: < 1000 nM

Nc1cc(-c2ncccc2C(F)(F)F)ccc1C(=O)Nc1ccc(C(F)(F)F)cc1 [Compound 13, 2-Amino-N-(4-trifluoromethyl-phenyl)-4-(3-trifluoromethyl-pyridin-2-yl)-benzamide]
Ki: < 1000 nM

Nc1cc(-c2ncccc2C(F)(F)F)ccc1C(=O)Nc1ccc(C(F)(F)F)nc1 [Compound 14, 2-Amino-N-(6-trifluoromethyl-pyridin-3-yl)-4-(3-trifluoromethyl-pyridin-2-yl)-benzamide]
Ki: < 1000 nM

CC(C)(C)c1ccc(NC(=O)c2ccc(-c3ccccc3Cl)cc2)cc1 [Compound 15, 2′-Chloro-biphenyl-4-carboxylic acid (4-tert-butyl-phenyl)-amide]
Ki: < 1000 nM

O=C(Nc1ccc(C(F)(F)F)cc1)c1ccc(-c2ncccc2C(F)(F)F)cc1O [Compound 16, 2-Hydroxy-N-(4-trifluoromethyl-phenyl)-4-(3-trifluoromethyl-pyridin-2-yl)-benzamide]
Ki: < 1000 nM

CS(=O)(=O)Nc1cc(-c2ncccc2C(F)(F)F)ccc1C(=O)Nc1ccc(C(F)(F)F)cc1 [Compound 17, 2-Methanesulfonylamino-N-(4-trifluoromethyl-phenyl)-4-(3-trifluoromethyl-pyridin-2-yl)-benzamide]
Ki: < 1000 nM

O=C(Nc1ccc(S(=O)(=O)C(F)(F)F)cc1)c1ccc(-c2ncccc2C(F)(F)F)cc1[N+](=O)[O-] [Compound 18, 2-Nitro-N-(4-trifluoromethanesulfonyl-phenyl)-4-(3-trifluoromethyl-pyridin-2-yl)-benzamide]
Ki: < 1000 nM

O=C(Nc1ccc(C(F)(F)F)cc1)c1ccc(-c2ncccc2C(F)(F)F)cc1[N+](=O)[O-] [Compound 19, 2-Nitro-N-(4-trifluoromethyl-phenyl)-4-(3-trifluoromethyl-pyridin-2-yl)-benzamide]
Ki: < 1000 nM

O=C(Nc1ccc(C(F)(F)F)nc1)c1ccc(-c2ncccc2C(F)(F)F)cc1[N+](=O)[O-] [Compound 20, 2-Nitro-N-(6-trifluoromethyl-pyridin-3-yl)-4-(3-trifluoromethyl-pyridin-2-yl)-benzamide]
Ki: < 1000 nM

CC(C)(C)c1ccc(NC(=O)c2ccc(-c3ccccc3C(F)(F)F)cc2O)cc1 [Compound 21, 3-Hydroxy-2′-trifluoromethyl-biphenyl-4-carboxylic acid (4-tert-butyl-phenyl)-amide]
Ki: < 1000 nM

CC(=O)N1CCCCC1c1ccc(C(=O)Nc2ccc(C(C)(C)C)cc2)cc1 (centres unmarked) [Compound 22, 4-(1-Acetyl-piperidin-2-yl)-N-(4-tert-butyl-phenyl)-benzamide]
Ki: < 1000 nM

CC(C)(C)c1ccc(NC(=O)c2ccc(-c3ncccc3N)cc2)cc1 [Compound 23, 4-(3-Amino-pyridin-2-yl)-N-(4-tert-butyl-phenyl)-benzamide]
Ki: < 1000 nM

CC(C)(C)c1ccc(NC(=O)c2ccc(-c3ccncc3N)cc2)cc1 [Compound 24, 4-(3-Amino-pyridin-4-yl)-N-(4-tert-butyl-phenyl)-benzamide]
Ki: < 1000 nM

CC(C)(C)c1ccc(NC(=O)c2ccc(-c3ncccc3NS(=O)(=O)c3ccccc3)cc2)cc1 [Compound 25, 4-(3-Benzenesulfonylamino-pyridin-2-yl)-N-(4-tert-butyl-phenyl)-benzamide]
Ki: < 1000 nM

Cc1cc(NC(=O)c2ccc(-c3ncccc3Cl)cc2)ccc1C(C)C [Compound 26, 4-(3-Chloro-pyridin-2-yl)-N-(4-isopropyl-3-methyl-phenyl)-benzamide]
Ki: < 1000 nM

Source: US20060100245A1, “Substituted biphenyl-4-carboxylic acid arylamide analogues” (Neurogen Corporation, priority 2002, published 2006)
